Test results: publication PMC3288053 (PLoS ONE, 2012)

Tests used:
[1] = biological target: T1, CD45 (Homo sapiens, UniProt P08575); assay: PTP enzyme inhibition assay (pNPP substrate); assay type: biochemical; conditions: PTPs 0.3 µM, pNPP 5 mM, 25°C; NI: No inhibition at 100 µM
T1 construct: pGEX2T-CD45_560–1256; GST (N); made in house; host or cells: E. coli BL21 (DE3)
Description: (§1) The enzymatic activities of the recombinant PTPs are measured at 25°C using pNPP as substrate. The initial velocities of enzymatic reactions are determined by continuously measuring the absorbance at 405 nm every 15 s using a microplate spectrophotometer (Bio-Rad). […] To determine the inhibition type, each concentration of Rut (0, 50 and 75 µM) is incubated with PTP1B (0.3 µM) in reaction buffer (50 mM HEPES, pH7.0, 1 mM EDTA, and 100 mM NaCl) for 10 min and the reactions are initiated by different concentrations of pNPP (0.5–10 mM). The inhibition type is determined using double-reciprocal plots. In determination of the selectivity of Rut against PTPs, the result is referred as no inhibition when 100 µM Rut inhibits no enzyme activity. The same reaction systems are designed for all PTPs including PTP1B.

[2] = biological target: T2, LAR (Homo sapiens, UniProt P10586); assay: PTP enzyme inhibition assay (pNPP substrate); assay type: biochemical; conditions: read-out: IC50 LAR; PTPs 0.3 µM, pNPP 5 mM, 25°C; NI: No inhibition at 100 µM
T2 construct: pGEX2T-LAR1282–1888; GST (N); made in house; host or cells: E. coli BL21 (DE3)
Description: as §1

[3] = biological target: T3, PTPα (Homo sapiens, UniProt P18433); assay: PTP enzyme inhibition assay (pNPP substrate); assay type: biochemical; conditions: read-out: IC50 PTPα; PTPs 0.3 µM, pNPP 5 mM, 25°C; NI: No inhibition at 100 µM
T3 construct: pGEX2T-PTPα182–803; GST (N); made in house; host or cells: E. coli BL21 (DE3)
Description: as §1

[4] = biological target: T4, SRC1_613–773 (Homo sapiens, UniProt Q15788); assay: SPR (Biacore) binding assay, control; conditions: SPR control experiment
T4 construct: The plasmid pET15b-SRC1_613–773 is constructed with NdeI-BamHI sites; His-tag (N); made in house; host or cells: E. coli BL21 (DE3)
Description: Binding affinities of Rut towards proteins are analyzed using SPR technology based Biacore 3000 instrument (GE Healthcare). In the assay, proteins are immobilized to CM5 chips using a standard amine-coupling procedure (Biacore manual). The proteins to be covalently bound to the chips are diluted in 10 mM sodium acetate buffer (pH4.5) to a final concentration of 0.10 mg/ml. Before experiments, baseline is equilibrated with a continuous flow of running buffer (10 mM HEPES, 150 mM NaCl, 3 mM EDTA, and 0.005% (v/v) surfactant P20, pH7.4) for 2 hours. Subsequently, Rut with a gradient of concentrations is injected to the channels at a flow rate of 20 µL/min for 60 seconds, followed by disassociation for 120 seconds. The 1∶1 Langmuir binding fitting model in BIAevaluation software version 3.1 (Biacore) is used to determine the equilibrium dissociation constants (K Ds) of compounds. For SRC1 recruitment assay, purified SRC1_613–773 is immobilized to a CM5 chip. Different concentrations of PPARγ-LBD or RXRα-LBD are injected to the channel at a flow rate of 20 µL/min for 60 s, followed by disassociation for 120 s. To further detect the effects of Rut on PPARγ-LBD/SRC1 or RXRα-LBD/SRC1 interactions, 1 µM PPARγ-LBD or RXRα-LBD is incubated with Rut (16.8–100 µM) for 1 hour, and then injected onto the chip.

[5] = test system: CHO-K1/GLUT4 cells; assay: Quantification of GLUT4 translocation ratio (IN Cell Analyzer 1000); assay type: cell-based
Description: CHO-K1 cells are transfected with pEGFPN1-GLUT4-myc plasmid using Lipofectamine 2000, and subsequently screened with G418 (800 µg/ml). The CHO-K1/GLUT4 stable cell line is obtained by picking up clones.
CHO-K1/GLUT4 cells are seeded into 96-well plate. After cells reached 100% confluence, F12 medium is changed to 3T3-L1 medium and incubated for 2 days. 8-hour serum starvation later, cells are stimulated with insulin for 5 minutes, fixed with 3.7% formaldehyde for 15 minutes, and labeled with anti-myc monoclonal antibody and secondary antibody (Alexa Fluor 647 conjuncted anti-mouse antibody). Fluorescence pictures were obtained by IN Cell Analyzer 1000 Instrument (GE Healthcare) with the same exposure time. The basic unit comprises several core components including a Nikon microscope and a high-resolution CCD camera. Membrane-located GLUT4 is represented by the intensity of red fluorescence (Alex fluor 647) and normalized by the intensity of green fluorescence (GLUT4-EGFP), which is assigned to the total GLUT4 [46].

[6] = test system: epididymis fat tissues; assay: Gene and protein expression in epididymis fat tissues of treated DIO mice; assay type: in vivo
Description: Four mice in each group are employed for the determination of gene expression. The total RNA is extracted from epididymis fat tissues (75 mg/mice) with TRIzol reagent, and the cDNA is synthesized using PrimeScript™ RT reagent Kit. Real-time PCR is performed using SYBR Green Real time PCR master mix on DNA Engine Opticon 2 System. The PCR cycle is 94°C for 20 seconds, 60°C for 30 seconds and 72°C for 30 seconds. The primer pairs for the related genes are described in Supplementary Table S2. The epididymis fat is lysed and the supernatant is separated by SDS-PAGE and transferred to polyvinylidene difluoride membranes (Millipore). Membranes are incubated in blocking buffer (BB) containing 5% skimmed milk with 0.5% Tween 20 in Tris-buffered saline and immunoblotted with the related antibodies overnight at 4°C in BB. After incubation, membranes are washed and incubated with horseradish peroxidase-labeled secondary antibodies (Amersham), and then the proteins are detected by SuperSignal West Pico chemiluminescent substrate (Pierce).

T4 sequence (Q15788 613-773): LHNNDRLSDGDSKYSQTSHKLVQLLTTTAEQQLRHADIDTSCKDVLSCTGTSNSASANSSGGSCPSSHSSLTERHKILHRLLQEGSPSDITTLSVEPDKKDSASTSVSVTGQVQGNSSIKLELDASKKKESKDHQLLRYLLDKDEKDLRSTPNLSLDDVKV
T1 sequence (P08575 610-1306 limits assumed): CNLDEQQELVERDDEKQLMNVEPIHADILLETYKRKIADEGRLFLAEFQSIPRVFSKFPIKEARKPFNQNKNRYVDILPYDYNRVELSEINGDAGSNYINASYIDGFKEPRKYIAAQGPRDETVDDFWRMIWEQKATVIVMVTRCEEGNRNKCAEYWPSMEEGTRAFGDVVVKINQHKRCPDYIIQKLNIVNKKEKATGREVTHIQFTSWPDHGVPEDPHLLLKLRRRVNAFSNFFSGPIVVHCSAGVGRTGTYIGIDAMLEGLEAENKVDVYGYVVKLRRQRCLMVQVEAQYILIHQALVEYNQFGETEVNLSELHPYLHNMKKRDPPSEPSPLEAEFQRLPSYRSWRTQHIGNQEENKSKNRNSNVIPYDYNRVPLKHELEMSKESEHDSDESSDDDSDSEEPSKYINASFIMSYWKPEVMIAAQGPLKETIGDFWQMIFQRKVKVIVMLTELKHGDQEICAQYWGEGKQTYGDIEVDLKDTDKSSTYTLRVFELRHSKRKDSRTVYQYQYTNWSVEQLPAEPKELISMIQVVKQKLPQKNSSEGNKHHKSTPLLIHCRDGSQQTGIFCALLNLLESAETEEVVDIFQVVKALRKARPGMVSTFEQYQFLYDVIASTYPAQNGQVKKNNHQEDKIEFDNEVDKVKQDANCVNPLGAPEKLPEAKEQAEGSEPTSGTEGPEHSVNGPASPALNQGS
T2 sequence (P10586 1301-1907 limits assumed): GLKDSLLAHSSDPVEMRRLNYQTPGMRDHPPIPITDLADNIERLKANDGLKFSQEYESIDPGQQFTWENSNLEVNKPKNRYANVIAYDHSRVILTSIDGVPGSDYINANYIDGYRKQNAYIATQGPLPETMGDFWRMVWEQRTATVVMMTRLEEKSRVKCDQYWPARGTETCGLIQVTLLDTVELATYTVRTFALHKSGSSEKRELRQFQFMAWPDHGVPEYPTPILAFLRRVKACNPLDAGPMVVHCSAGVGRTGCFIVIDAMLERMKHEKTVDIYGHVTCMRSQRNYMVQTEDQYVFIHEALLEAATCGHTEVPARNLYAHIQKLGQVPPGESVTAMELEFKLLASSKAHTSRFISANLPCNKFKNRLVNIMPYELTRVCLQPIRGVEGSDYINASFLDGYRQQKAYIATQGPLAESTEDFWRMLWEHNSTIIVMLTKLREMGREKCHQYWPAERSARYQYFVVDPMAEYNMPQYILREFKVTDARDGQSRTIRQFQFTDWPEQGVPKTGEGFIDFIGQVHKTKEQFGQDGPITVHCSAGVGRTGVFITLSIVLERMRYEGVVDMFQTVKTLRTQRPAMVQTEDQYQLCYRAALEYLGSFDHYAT

C=CC(C)(C)c1cc2cc3c(cc2oc1=O)O[C@H](C(C)(C)OC(C)=O)C3 [(+)-Rutamarin]
IC50 [1]: > 100 µM
IC50 [2]: > 100 µM
IC50 [3]: > 100 µM
binding to SRC1 [4]: does not bind
EC50 ([5]; Cricetulus griseus, CHO-K1, cells pre-treated with Rut 8 hours, then insulin (170 nM) 5 minutes, read-out: EC50, enhancement of insulin-induced GLUT4 translocation): 7 µM
basal GLUT4 translocation without insulin induction ([5]; Rut 20 µM, 8 h): induces basal GLUT4 translocation
effect on pervanadate-stimulated GLUT4 translocation ([5]; Rut 20 µM, pervanadate 100 µM): cannot enhance
enhancement on insulin-induced GLUT4 translocation compared with compound-2 and pervanadate ([5]; insulin 170 nM, C2 10 µM, pervanadate 100 µM, Rut 5, 10, 20 µM): even stronger
insulin receptor (IR) phosphorylation in epididymis fat tissues ([6]; Rut 2 mg/kg IP, 2 weeks): efficiently improve
mRNA levels of PPARγ:RXRα-regulated genes (pepck, GLUT4 and adiponectin) ([6]; Rut 10 mg/kg, epididymis fat tissues): efficiently increase
GLUT4 expression in epididymis fat tissues ([6]; Rut 2 and 10 mg/kg): increases GLUT4 expression
